From paper doi:10.1101/2021.03.24.436736v2 (biorxiv, 2023)

Legend:
PxRDL1 = biological target: T1, PxRDL1 (Plutella xylostella, UniProt C0L7I5); experiment: two-electrode voltage clamp, Xenopus laevis oocytes; assay type: cell-based
T1 sequence (C0L7I5 26-485): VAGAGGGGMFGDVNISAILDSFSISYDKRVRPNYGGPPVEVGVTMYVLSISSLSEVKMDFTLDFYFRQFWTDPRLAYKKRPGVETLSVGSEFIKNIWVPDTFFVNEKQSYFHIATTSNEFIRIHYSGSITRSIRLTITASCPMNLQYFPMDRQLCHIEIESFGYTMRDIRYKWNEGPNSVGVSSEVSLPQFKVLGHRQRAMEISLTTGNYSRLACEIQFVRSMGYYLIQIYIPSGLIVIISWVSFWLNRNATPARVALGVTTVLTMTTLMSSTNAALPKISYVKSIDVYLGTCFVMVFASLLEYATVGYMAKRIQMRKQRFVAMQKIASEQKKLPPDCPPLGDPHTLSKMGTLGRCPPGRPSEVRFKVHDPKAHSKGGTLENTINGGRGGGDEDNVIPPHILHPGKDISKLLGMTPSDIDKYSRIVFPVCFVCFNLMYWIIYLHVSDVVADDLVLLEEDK

PxRDL2 [1] = biological target: T2, PxRDL2 (Plutella xylostella, UniProt C0L7I7); experiment: cell-based; set-up: species or system Xenopus laevis oocytes
T2 sequence (C0L7I7 30-520): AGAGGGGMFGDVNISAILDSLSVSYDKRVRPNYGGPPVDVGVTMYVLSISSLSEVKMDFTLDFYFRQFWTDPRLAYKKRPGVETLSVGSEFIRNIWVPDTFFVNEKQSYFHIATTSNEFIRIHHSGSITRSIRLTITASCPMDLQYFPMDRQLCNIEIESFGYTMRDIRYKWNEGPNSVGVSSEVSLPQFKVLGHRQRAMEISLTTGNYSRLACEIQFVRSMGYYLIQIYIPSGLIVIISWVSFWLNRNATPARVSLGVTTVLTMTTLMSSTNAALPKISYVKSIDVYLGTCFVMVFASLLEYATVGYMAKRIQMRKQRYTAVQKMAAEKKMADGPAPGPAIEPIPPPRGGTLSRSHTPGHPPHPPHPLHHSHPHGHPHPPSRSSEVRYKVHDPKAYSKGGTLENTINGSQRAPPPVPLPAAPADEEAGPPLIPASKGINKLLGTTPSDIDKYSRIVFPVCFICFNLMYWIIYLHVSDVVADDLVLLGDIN

PxRDL2 [2] = biological target: T2, PxRDL2; experiment: two-electrode voltage clamp, Xenopus laevis oocytes; assay type: cell-based

IC50 (PxRDL2 [1]) [nM]	SMILES	IC50 (PxRDL1) [nM]	IC50 (PxRDL2 [2]) [nM]
> 30000	CCOC(=O)C1(C(=O)OCC)Nc2c([S+]([O-])C(F)(F)F)c(C#N)nn2-c2c(Cl)cc(C(F)(F)F)cc21 (stereo not drawn) [4a, diethyl 9-chloro-2-cyano-7-(trifluoromethyl)-3-((trifluoromethyl)sulfinyl)pyrazolo[1,5-α]quin azoline-5,5(4H)-dicarboxylate]	2020	–
–	Cc1cc(C2=NOC(c3cc(Cl)cc(Cl)c3)(C(F)(F)F)C2)ccc1C(=O)NCC(=O)NCC(F)(F)F (stereo not drawn) [fluralaner, 4-[5-(3,5-dichlorophenyl)-5-(trifluoromethyl)-4H-1,2-oxazol-3-yl]-2-methyl-N-[2-oxo-2-(2,2,2-trifluoroethylamino)ethyl]benzamide]	10	18
–	CON=CNC(=O)c1ccc(C2=NOC(c3cc(Cl)cc(Cl)c3)(C(F)(F)F)C2)cc1C (stereo not drawn) [fluxametamide, 4-[5-(3,5-dichlorophenyl)-5-(trifluoromethyl)-4H-1,2-oxazol-3-yl]-N-[(E)-methoxyiminomethyl]-2-methylbenzamide]	20	17
